This is an account of results in patent US20120172375A1, “COMPOUNDS AND METHODS OF PROMOTING OLIGODENDROCYTE PRECURSOR DIFFERENTIATION” (priority 2008, published 2012).

The subject of series [1] is oligodendrocyte progenitors. The experiment in a line: BrdU incorporation, proliferation of oligodendrocyte progenitors. The format is cell-based, mouse. The conditions noted are these: 10 nM, 48 h; Average±SEM; control 26.3±3.2; not statistically significant. The method, then:
A feasible effect of small molecules on oligodendrocyte progenitor cells is the induction of proliferation. We studied this possibility by treating cultures of oligodendrocyte progenitors, previously exposed to compounds A, A-7 and B (10 nM, 48 h) with BrdU (Bromodeoxyuridine, 10 μM added 24 hrs before the end of the treatment) and posterior immunostaining to detect BrdU positive cells. This is a well established method to determine cell division and proliferation by incorporation of the […]. After counting BrdU positive oligodendrocytes versus total cells in three independent experiments we observed a slight tendency of increased proliferation in cells treated with compounds A, A-7 or B. However, there were not statistically significant differences between treated and control cells (control: 26.3±3.2; compound A: 29.2±4.0; compound A-7: 28,9±2.1; compound B: 27.6±6.7; Values are represented as Average±SEM).

Another series has as its system Akt. Nature of the series: Akt activity in cell extracts of oligodendrocyte precursors (phosphorylation of Akt substrate GSKα/β). As to conditions: 10 μM, 48 h. Type of series: cell-based. The text has this:
Oligodendrocyte precursor differentiation requires the activation of a complex, highly controlled machinery that signals cells to stop migrating/proliferating and start extending processes and producing myelin components. A number of inducers and intracellular mediators of this process have been identified in vitro and in viva. […] Therefore, we studied whether our selected small molecules induced Akt signaling in oligodendrocyte precursors. We analyzed Akt activity in cell extracts of oligodendrocyte precursors treated with selected compounds (10 μM, 48 h), as determined by phosphorylation of Akt substrate GSKα/β.

For series [2], the system named is oligodendrocyte precursors. Nature of the series: Oligodendrocyte precursor maturation after pre-incubation with PI3K, mTOR or Akt inhibitors (MBP immunostaining). Type of series: cell-based. As to conditions: 48 h treatment; for effect of Akt inhibitor on compound-induced differentiation: Akt 1/2 inhibitor 1 μM added 1 hr before; for effect of PI3K inhibition on compound-induced oligodendrocyte precursor maturation: wortmannin 0.1 μM added 1 hr before. Here is the method: Akt signaling has been extensively studied, and activation of phosphatidyl-inositol-3-kinase (PI3K) is generally accepted as a canonical upstream Akt activator. Downstream targets of Akt have also been identified and those include GSK, mTOR, p70SK, ASK amongst many others. In order to determine the relevance of […], signaling in the phosphorylation of Akt induced by compounds A and B and possible downstream targets of phosphorylated Akt, we pre-incubated the cells with inhibitors of PI3K (wortmannin, 0.1 μM), mTOR (rapamycin 0.1 μM) or a direct Akt ½ inhibitor (trifluoroacetate salt hydrate, 1 μM), all added 1 hr before the treatment with compounds A or B.
Cells were immunostained for MBP and after 48 h treatment with compound A or B the cells underwent morphology changes indicative of cell differentiation that included the generation of multiple cell processes and development of membranous structures.

Series [3] relates to tg[Plp:EGFP] zebrafish embryos. The experiment in a line: Oligodendrocyte development in tg[Plp:EGFP] zebrafish embryos. The conditions noted are these: 1, 10 and 100 nM from 24 hpf, analysed at 72 hpf. The format is in vivo. Here is the method: Transgenic-Proteolipid protein-enhanced green fluorescence protein (tg[plp:EGFP]) zebrafish was raised and maintained (Yoshida and Macklin, J. Neurosci Res, 81:1, 2005). Embryos were collected and staged by hour post fertilization (hpf). Compounds were added at 24 hpf stage at a concentration of 10 nM, 100 nM and 1 μM. After 48 hrs (72 hpf stage), zebrafish embryos were anesthetized in 0.02% tricaine, fixed in 4% paraformaldehyde, and washed in phosphate buffered saline (PBS). After treating with 10% Triton X-100 for 30 minutes, embryos were washed in PBS and blocked with 3% goat serum. Embryos were then incubated at 4° C. overnight with FITC-conjugated goat anti-GFP antibody (Abcam, Cambridge, Mass.) at a concentration of 1:1000. After several washes with PBS, the embryos were embedded in 100% glycerol and visualized on a Leica SP5 confocal microscope.
Embryos from transgenic-Plp-EGFP (tg[Plp:EGFP]) zebrafish were treated starting at 24 hours post fertilization (hpf) with compounds A, A-7 or B (1, 10 and 100 nM) or vehicle (DMSO). At 72 hpf effective treatments were analyzed by confocal microscopy after fixation and EGFP immunostaining of selected positive compounds.

The nature of series [4]: Detection of small molecules in blood plasma and brain tissue by mass spectrometry. As to conditions: for blood plasma level, average / brain level, average: 4 mice; for blood plasma level, average / brain level, average / Biological sample concentration (nM), Brain / Biological sample concentration (nM), Plasma: 100 mg/kg i.p., two doses in 5 days; for crossing of the blood brain barrier: two I.P. doses in a five day-term.
Method: The signal was optimized for each compound for positive or negative ionization by ESI (Electrospray ionization). A standard curve what made with pure compound solutions in DMSO up to 10 ng/ml. A MS2 scan was used to identify the progenitor ion and a product ion analysis was used to identify the best fragment for analysis and to optimize the collision energy. […] Samples were precipitated in 3 volumes of methanol with internal standard, centrifuged, and filtered. Filtered samples were analyzed by LC/MS/MS using either an Agilent 6410 mass spectrometer coupled with an Agilent 1200 HPLC and a CTC PAL chilled autosampler, all controlled by MassHunter software (Agilent), or an AB12000 mass spectrometer coupled with an Agilent 1100 HPLC and a CTC PAL chilled autosampler, all controlled by Analyst software (ABI). After separation on a C18 reverse phase HPLC column (Agilent, Waters, or equivalent) using an acetonitrile-water gradient system, peaks were analyzed by mass spectrometry (MS) using ESI ionization in MRM (Multiple Reaction Monitoring) mode.
4 mice per condition were injected i.p. (100 mg/kg), following the same experimental paradigm performed for the tissue analysis (two doses m a 5 days time).

The nature of the next series: Solubility. The format is physicochemical.
A short description of a further series: Hydrophobicity. Type of series: physicochemical.

The structures appear in SMILES notation. “Also recorded” adds a separate entry of the source.

In the case of `CCS(=O)(=O)N1CCN(C(=O)COc2ccc(-c3ccccc3)cc2)CC1` [Compound A, 1-[(4-biphenylyloxy)acetyl]-4-(ethylsulfonyl)piperazine], the “BrdU positive oligodendrocytes versus total cells” value in series [1] was 29.2±4.0. The Akt phosphorylation entry in the series on Akt is given as “clearly detected”. Also, in series [2], the “effect of Akt inhibitor on compound-induced differentiation” value is “completely blocked” and the “effect of PI3K inhibition on compound-induced oligodendrocyte precursor maturation” value is on record as “did not block”. Further, in series [3], the “number of oligodendrocyte progenitor cells and fluorescence intensity in embryos” value is “clear increase; also recorded: increased accumulation of oligodendrocytes and enhanced differentiation”. In series [4], the “blood plasma level, average” value is 131.3 nM; the “brain level, average” value was 9.2 nM; the “crossing of the blood brain barrier” value is “effectively crossed the blood brain barrier”. In series [4] (Sample No. 1), the “Biological sample concentration (nM), Brain” value is on record as 4.6 nM and the “Biological sample concentration (nM), Plasma” value amounted to 90 nM. Further, in series [4] (Sample No. 2), the “Biological sample concentration (nM), Brain” value amounted to 14.7 nM and the “Biological sample concentration (nM), Plasma” value amounted to 149 nM. Besides, in series [4] (Sample No. 3), the “Biological sample concentration (nM), Brain” value is reported as 13.2 nM and the “Biological sample concentration (nM), Plasma” value is on record as 129 nM. Also, in series [4] (Sample No. 4), the “Biological sample concentration (nM), Brain” value is 4.3 nM and the “Biological sample concentration (nM), Plasma” value is 157 nM.
For `CC(C)N1CCN(C(=O)COc2ccc(-c3ccccc3)cc2)CC1` [Compound A-7, 1-(Biphenyl-4-yloxy)acetyl-4-isopropylpiperazine], in series [3], the “number of oligodendrocyte progenitor cells and fluorescence intensity in embryos” value was “clear increase; also recorded: increased accumulation of oligodendrocytes and enhanced differentiation”. Moreover, the solubility entry in the series “Solubility” is “high”. The hydrophobicity entry in “Hydrophobicity” was “high”. Also, in series [4], the “blood plasma level, average” value was 9.2 nM; the “brain level, average” value was 13.5 nM; the “crossing of the blood brain barrier” value was “effectively crossed the blood brain barrier”. Besides, in series [4] (Sample No. 1), the “Biological sample concentration (nM), Brain” value is reported as 16.6 nM and the “Biological sample concentration (nM), Plasma” value was 4.2 nM. Besides, in series [4] (Sample No. 2), the “Biological sample concentration (nM), Brain” value is 16.8 nM and the “Biological sample concentration (nM), Plasma” value is on record as 5.3 L nM. Further, the “Biological sample concentration (nM), Brain” value in series [4] (Sample No. 3) came to 4.21 nM. In series [4] (Sample No. 4), the “Biological sample concentration (nM), Brain” value stood at 6.2 nM and the “Biological sample concentration (nM), Plasma” value stood at 3.6 nM.
With `O=[N+]([O-])c1ccc(F)c(NS(=O)(=O)c2ccc(F)cc2)c1` [Compound B, 4-fluoro-N-(2-fluoro-5-nitrophenyl)benzenesulfonamide], the “BrdU positive oligodendrocytes versus total cells” value in series [1] is reported as 27.6±6.7. In addition, in the series with Akt, the Akt phosphorylation result was “clearly detected”. Moreover, in series [2], the “effect of Akt inhibitor on compound-induced differentiation” value is given as “completely blocked” and the “effect of PI3K inhibition on compound-induced oligodendrocyte precursor maturation” value was “did not block”. The “effect of mTOR inhibition on compound-induced oligodendrocyte precursor maturation” value in series [2] (rapamycin 0.1 μM added 1 hr before) was “totally avoided”.
